This note sets out measurements from paper PMC9405973, “Altered Conformational Landscape upon Sensing Guanine Nucleotides in a Disease Mutant of Elongation Factor-like 1 (EFL1) GTPase” (Biomolecules, 2022).

“And” between values parts separate entries of the source, which are not always exact repeats. Identical values can stand only once.

The experiment addresses T1, Efl1 R1086Q P151L (Saccharomyces cerevisiae, UniProt P53893, P151L/R1086Q).
T1 construct: made in house; host or cells: Saccharomyces cerevisiae
The experiment is described as follows: ITC: binding of GTP to double mutant Efl1 R1086Q P151L. The settings on record: +Mg^2+. On the technique in general: Isothermal titration calorimetry measures the heat released or taken up as one component is titrated into another.

T1 sequence (P53893 whole entry P151L/R1086Q): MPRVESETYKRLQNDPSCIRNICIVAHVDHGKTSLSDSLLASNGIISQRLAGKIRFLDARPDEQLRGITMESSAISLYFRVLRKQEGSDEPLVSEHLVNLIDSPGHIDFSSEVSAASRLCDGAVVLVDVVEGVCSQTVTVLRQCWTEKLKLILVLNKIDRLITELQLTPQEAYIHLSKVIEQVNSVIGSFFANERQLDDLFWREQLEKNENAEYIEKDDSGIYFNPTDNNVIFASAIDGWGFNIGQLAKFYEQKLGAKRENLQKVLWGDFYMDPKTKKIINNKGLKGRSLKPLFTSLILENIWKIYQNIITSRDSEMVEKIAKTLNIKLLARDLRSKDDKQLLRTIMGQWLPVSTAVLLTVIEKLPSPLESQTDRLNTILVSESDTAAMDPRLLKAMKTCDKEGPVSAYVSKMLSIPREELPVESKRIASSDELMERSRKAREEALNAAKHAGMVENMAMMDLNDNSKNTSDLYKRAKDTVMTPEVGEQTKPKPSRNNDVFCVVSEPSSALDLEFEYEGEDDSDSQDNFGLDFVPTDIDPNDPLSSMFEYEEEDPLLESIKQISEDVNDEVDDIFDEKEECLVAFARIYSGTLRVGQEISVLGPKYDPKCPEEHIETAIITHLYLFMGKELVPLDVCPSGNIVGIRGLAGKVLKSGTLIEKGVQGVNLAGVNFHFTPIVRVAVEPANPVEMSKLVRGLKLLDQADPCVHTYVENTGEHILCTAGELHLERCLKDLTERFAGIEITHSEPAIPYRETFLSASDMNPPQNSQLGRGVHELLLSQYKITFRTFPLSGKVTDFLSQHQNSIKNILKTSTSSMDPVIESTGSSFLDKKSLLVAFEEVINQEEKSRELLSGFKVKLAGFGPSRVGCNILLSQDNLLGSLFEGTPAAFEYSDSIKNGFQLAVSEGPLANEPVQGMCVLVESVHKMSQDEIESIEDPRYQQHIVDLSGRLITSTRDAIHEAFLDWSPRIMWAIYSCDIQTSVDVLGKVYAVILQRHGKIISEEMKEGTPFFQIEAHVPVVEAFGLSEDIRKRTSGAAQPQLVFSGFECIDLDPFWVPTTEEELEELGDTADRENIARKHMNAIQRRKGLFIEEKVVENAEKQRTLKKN

The Kd is the equilibrium constant for the complex coming apart. High values mean weaker binding, low ones tighter binding. Regarding `Nc1nc2c(ncn2[C@@H]2O[C@H](COP(=O)(O)OP(=O)(O)OP(=O)(O)O)[C@@H](O)[C@H]2O)c(=O)[nH]1` [GTP], for the setting “25 °C”, the “-TΔSb” value was -4.8 kcal/mol, the ΔGb is -6.5 kcal/mol, the ΔHb is -1.7 ± 0.1 kcal/mol and binding was put at a Kd of 18 ± 3 µM. Under “30 °C”, the “-TΔSb” value is -4.1 kcal/mol; the “Nconfres (number of residues changing conformation, absolute value)” value came to 19; the “Nconfrotb (number of routable bonds changing conformation, absolute value)” value is reported as 19; the ΔCpconf is reported as −195 cal mol^−1 K^−1. Where the note is “30 °C”, this compound registered a ΔCprb of −25 cal mol^−1 K^−1, a ΔGb of -6.6 kcal/mol, a ΔHb of -2.5 ± 0.1 kcal/mol and a ΔSb of 13 cal mol^−1 K^−1. Further, under “30 °C”, the ΔSconf is −31 cal mol^−1 K^−1, the ΔSsolv was determined as 53 cal mol^−1 K^−1, the “−ΔASAconf” value turned out to be 875 Å^2 and the Kd turned out to be 17 ± 2 µM. Under “35 °C”, the “-TΔSb” value was -2.8 kcal/mol, the ΔGb is -6.7 kcal/mol, the ΔHb was -3.9 ± 0.1 kcal/mol and the Kd was determined as 18 ± 2 µM. Further, for the setting “from ΔHb at 25–35 °C”, the ΔCpb is −220 ± 35 cal mol^−1 K^−1 and −220 cal mol^−1 K^−1.
